Legend:
H358 (G12C+) cell lysate = assay: Western blot of cell lysate with P1A4 IgG; type: binding; conditions: treated H358 (G12C+) cells
[1] = system: KRas G12C cell lines (H358, MiaPaca-2, SW1573); assay: Flow cytometry of cell-surface accessible ARS-1620 with P1A4; type: cell-based; conditions: several KRas G12C cell lines compared to a wild type KRas cell line
Description: Low background staining observed in the presence of DMSO treatment confirms that the interaction is ARS-1620 dependent.

[2] = system: colocalization of ARS-1620 and MHC in a KRas G12C cell line; assay: Proximity ligation assay (PLA); type: cell-based; conditions: not with atropisomer or DMSO
Description: FIG. 5 is a schematic of the proximity ligation assay (PLA) for detecting colocalization of two antigens. […] Secondary antibodies are directed against the Fc region of the human or murine antibodies, and are attached to complimentary oligos used to assemble a complementary oligo for rolling circle amplification (RCA). Amplification only occurs if the two antigens are colocalized, and amplified oligos are detected with complimentary, fluorogenic oligos.
(§1) To test whether the cell surface exposed ARS-1620 was pMHC associated, a proximity ligation assay was used in which fluorescent signal is indicative of colocalization of ARS-1620 and MHC (FIG. 5). […] To test whether this colocalization was due to direct covalent reaction with MHC molecules already on the cell surface or due to traditional loading of intracellular MHCs with covalently modified intracellular peptides, a covalent capture ELISA was used to detect ARS-1620 labeled peptides eluted from cells by mild acid elution. A short acid treatment dissociates peptides from the pMHC on living cells, allowing capture of the presented peptides in the acidic buffer supernatant and subsequent covalent immobilization via their N-terminus for ELISA. […] The eluted peptides and peptides obtained from MHC immunoprecipitation are analyzed by mass spectrometry to precisely identify haptenized peptide sequences.

[3] = system: ARS-1620 labeled peptides eluted from KRas G12C cells; assay: Covalent capture ELISA of MHC eluted peptides (mild acid elution); type: cell-based; conditions: ARS-1620 treated KRas G12C samples, stained with P1A4 IgG
Description: as §1

[4] = system: T-cells of PBMCs co-incubated with MiaPaca-2 (KRas G12C) cells; assay: T cell activation (CD3/CD69) by flow cytometry after 72 hr co-incubation; type: cell-based; conditions: ARS1620, No Ab
Description: MiaPaca-2 (KRas G12C) cells were pulsed with either DMSO or ARS-1620 in order to label proteins without exerting a direct pharmacological effect on the health of the cells. […] Following the 72 hr treatment, cells were stained for T-cell receptors (CD3) and T-cell activation (CD69) and analyzed by flow cytometry.

[5] = system: human H358 (G12C+) cells xenografted tumors; assay: H358 xenograft murine model, P1A4 IgG staining of harvested tumors by flow cytometry; type: in vivo, Mice
Procedure: In order to test whether ARS-1620 is accessible and targetable on the surface of treated cells in more complex systems, an H358 xenograft murine model was utilized. Mice were xenografted with human H358 (G12C+) cells and treated with either DMSO (placebo), ARS-1620 (1× at 200 mg/kg, or 3× at 200 mg/kg daily), or AMG-510 (1× at 100 mg/kg).

wild type KRas = wild type KRas (Homo sapiens, UniProt P01116); conditions: Visscher et al. 2016; cited from earlier work
KRas G12C = KRas G12C (Homo sapiens, UniProt P01116, G12C); conditions: Visscher et al. 2016; cited from earlier work

| SMILES | off-targets of ARS-1620 detected by western blot with P1A4 (H358 (G12C+) cell lysate) | increase in cell surface ARS-1620 [1] | fluorescent signal (colocalization of ARS-1620 with MHC) [2] | ARS-1620 haptenized peptides in MHC eluted peptides [3] | % CD3 + CD69+ [4] | P1A4 IgG staining of xenografted tumor cells ([5]; ARS-1620 1× at 200 mg/kg or 3× at 200 mg/kg daily) | binding to wild type KRas lacking acquired cysteine (wild type KRas) | specificity for KRas G12C over other cellular proteins (KRas G12C) | P1A4 IgG staining of xenografted tumor cells ([5]; AMG-510 1× at 100 mg/kg) |
| --- | --- | --- | --- | --- | --- | --- | --- | --- | --- |
| C=CC(=O)N1CCN(c2ncnc3c(F)c(-c4c(O)cccc4F)c(Cl)cc23)CC1 (atropisomer, axis not shown) [ARS-1620] | additional off-targets | 10 × | detectable | readily detected | 2.42% | P1A4+ cell population emerged | no appreciable binding | high specificity |  |
| C=CC(=O)N1CCN(c2nc(=O)n(-c3c(C)ccnc3C(C)C)c3nc(-c4c(O)cccc4F)c(F)cc23)[C@@H](C)C1 [AMG-510] |  |  |  |  |  |  |  |  | no P1A4 staining |

Source: patent US12486334B2, “Chemically controlled monoclonal antibody target engagement” (The Regents of the University of California, priority 2019, dated 2025)
